Data as given in ChEMBL document CHEMBL1141678 (Eur J Med Chem, 2008).

Legend:
[1] = biological target: T1, Cytochrome P450 1A2 (Homo sapiens, UniProt P05177); test: Inhibition of human recombinant CYP1A2; conditions: for log(1/IC50): human
T1 sequence (P05177 whole entry): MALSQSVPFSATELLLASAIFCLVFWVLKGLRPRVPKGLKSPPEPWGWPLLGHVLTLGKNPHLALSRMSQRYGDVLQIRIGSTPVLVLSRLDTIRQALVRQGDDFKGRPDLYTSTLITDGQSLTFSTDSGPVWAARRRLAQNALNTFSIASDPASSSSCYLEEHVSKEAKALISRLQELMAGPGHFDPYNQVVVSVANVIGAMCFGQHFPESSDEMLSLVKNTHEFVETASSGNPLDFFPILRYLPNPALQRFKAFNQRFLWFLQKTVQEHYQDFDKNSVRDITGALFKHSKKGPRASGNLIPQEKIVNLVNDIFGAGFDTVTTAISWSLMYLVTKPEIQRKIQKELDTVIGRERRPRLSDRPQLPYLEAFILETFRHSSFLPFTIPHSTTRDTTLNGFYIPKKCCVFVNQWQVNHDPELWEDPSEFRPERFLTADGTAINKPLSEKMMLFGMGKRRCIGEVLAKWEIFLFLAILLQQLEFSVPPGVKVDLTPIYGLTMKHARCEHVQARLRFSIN

[2] = biological target: T2, Cytochrome P450 2D6 (Homo sapiens, UniProt P10635); test: Inhibition of human recombinant CYP2D6 in presence of reduced glutathione; assay type: ADME; conditions: recombinant enzyme
[3] = biological target: T3, Cytochrome P450 2C9 (Homo sapiens, UniProt P11712); test: Inhibition of human recombinant CYP2C9 in presence of reduced glutathione; assay type: ADME; conditions: recombinant enzyme
[4] = biological target: T4, Cytochrome P450 3A4 (Homo sapiens, UniProt P08684); test: Inhibition of human recombinant CYP3A4 in presence of reduced glutathione; assay type: ADME; conditions: recombinant enzyme
[5] = biological target: T5, Cytochrome P450 2B6 (Homo sapiens, UniProt P20813); test: Inhibition of human recombinant CYP2B6 in presence of reduced glutathione; assay type: ADME; conditions: recombinant enzyme
T5 sequence (P20813 whole entry): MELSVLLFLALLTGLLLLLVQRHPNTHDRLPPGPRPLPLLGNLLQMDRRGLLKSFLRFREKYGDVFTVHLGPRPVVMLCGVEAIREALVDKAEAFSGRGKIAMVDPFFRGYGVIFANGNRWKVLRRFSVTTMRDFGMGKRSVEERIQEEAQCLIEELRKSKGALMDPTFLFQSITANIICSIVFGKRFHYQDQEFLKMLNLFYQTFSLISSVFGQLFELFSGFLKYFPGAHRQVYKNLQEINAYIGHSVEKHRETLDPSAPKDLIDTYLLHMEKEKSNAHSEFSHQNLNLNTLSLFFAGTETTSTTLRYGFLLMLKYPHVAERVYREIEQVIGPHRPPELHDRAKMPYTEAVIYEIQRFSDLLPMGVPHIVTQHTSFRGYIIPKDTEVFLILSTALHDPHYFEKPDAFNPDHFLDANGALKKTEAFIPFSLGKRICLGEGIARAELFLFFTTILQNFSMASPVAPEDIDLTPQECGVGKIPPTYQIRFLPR

[6] = biological target: T2, Cytochrome P450 2D6; test: Inhibition of human recombinant CYP2D6 at 100 uM; assay type: ADME; conditions: recombinant enzyme
[7] = biological target: T4, Cytochrome P450 3A4; test: Inhibition of human recombinant CYP3A4 at 100 uM; assay type: ADME; conditions: recombinant enzyme
[8] = biological target: T5, Cytochrome P450 2B6; test: Inhibition of human recombinant CYP2B6 at 100 uM; assay type: ADME; conditions: recombinant enzyme
[9] = biological target: T3, Cytochrome P450 2C9; test: Inhibition of human recombinant CYP2C9; assay type: ADME
[10] = biological target: T2, Cytochrome P450 2D6; test: Inhibition of human recombinant CYP2D6; assay type: ADME
[11] = biological target: T4, Cytochrome P450 3A4; test: Inhibition of human recombinant CYP3A4; assay type: ADME

T4 sequence (P08684 whole entry): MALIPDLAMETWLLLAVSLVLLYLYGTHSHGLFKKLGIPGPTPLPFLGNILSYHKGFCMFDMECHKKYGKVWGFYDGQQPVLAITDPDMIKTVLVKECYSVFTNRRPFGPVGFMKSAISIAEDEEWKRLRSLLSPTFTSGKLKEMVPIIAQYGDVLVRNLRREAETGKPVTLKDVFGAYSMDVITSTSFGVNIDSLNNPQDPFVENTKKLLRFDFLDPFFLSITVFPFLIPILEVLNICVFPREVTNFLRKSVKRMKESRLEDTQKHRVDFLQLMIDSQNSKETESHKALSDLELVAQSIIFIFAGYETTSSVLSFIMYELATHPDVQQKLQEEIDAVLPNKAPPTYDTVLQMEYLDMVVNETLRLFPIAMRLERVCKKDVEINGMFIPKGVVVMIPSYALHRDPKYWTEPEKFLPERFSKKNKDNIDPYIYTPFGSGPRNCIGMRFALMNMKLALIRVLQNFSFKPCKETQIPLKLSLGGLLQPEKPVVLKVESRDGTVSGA
T3 sequence (P11712 whole entry): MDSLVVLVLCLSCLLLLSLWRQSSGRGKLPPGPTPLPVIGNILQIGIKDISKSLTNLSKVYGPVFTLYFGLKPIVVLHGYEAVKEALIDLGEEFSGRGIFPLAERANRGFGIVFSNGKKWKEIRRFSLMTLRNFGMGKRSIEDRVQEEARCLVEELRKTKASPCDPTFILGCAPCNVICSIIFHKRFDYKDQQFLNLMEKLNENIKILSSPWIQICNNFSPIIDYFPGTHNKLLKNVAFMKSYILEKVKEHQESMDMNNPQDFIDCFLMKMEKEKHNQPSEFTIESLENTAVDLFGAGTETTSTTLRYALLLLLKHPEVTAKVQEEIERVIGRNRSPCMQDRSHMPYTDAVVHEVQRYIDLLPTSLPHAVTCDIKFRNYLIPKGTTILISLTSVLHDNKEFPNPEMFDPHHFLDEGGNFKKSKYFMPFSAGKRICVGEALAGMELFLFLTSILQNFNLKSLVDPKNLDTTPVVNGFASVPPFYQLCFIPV
T2 sequence (P10635 whole entry): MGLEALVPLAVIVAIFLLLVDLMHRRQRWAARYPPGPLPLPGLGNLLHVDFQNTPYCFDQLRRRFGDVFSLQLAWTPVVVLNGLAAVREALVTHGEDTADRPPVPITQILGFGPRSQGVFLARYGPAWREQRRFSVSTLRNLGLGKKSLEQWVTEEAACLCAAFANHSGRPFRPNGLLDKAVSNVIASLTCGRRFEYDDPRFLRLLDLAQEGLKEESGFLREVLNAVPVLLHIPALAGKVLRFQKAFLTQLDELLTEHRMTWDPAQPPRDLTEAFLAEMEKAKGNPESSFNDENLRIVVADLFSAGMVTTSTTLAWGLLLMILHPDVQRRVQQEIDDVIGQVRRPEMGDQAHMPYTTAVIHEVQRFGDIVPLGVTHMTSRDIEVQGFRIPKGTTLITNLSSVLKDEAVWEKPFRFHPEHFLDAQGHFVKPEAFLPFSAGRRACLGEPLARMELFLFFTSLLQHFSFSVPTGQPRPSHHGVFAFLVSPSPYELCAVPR

Row | IC50 [1] [µM] | log(1/IC50) ([1]; recombinant CYP1A2) | Activity [2] | Activity [3] | Activity [4] | Activity [5] | Activity [6] | Activity [7] | Activity [8] | IC50 [9] [µM] | IC50 [10] [µM] | IC50 [11] [µM] | log(1/IC50) [1] | SMILES
1 | 26.6 | 1.575 | Not Active | Not Active | Not Active | Not Active | – | – | – | – | – | – | – | O=C(/C=C/c1ccc(Cl)cc1)/C=C/c1ccc(Cl)cc1
2 | 21 | 1.678 | Not Active | Not Active | Not Active | Not Active | Not Active | Not Active | Not Active | – | – | – | – | Cc1ccc(/C=C2\CCC/C(=C\c3ccc(C)cc3)C2=O)cc1
3 | – | – | Not Active | Not Active | Not Active | Not Active | Not Active | Not Active | Not Active | 1 | – | – | – | O=C1/C(=C/c2ccc(O)cc2)CCC/C1=C\c1ccc(O)cc1
4 | – | – | Not Active | Not Active | Not Active | Not Active | – | – | – | 1.8 | 2 | – | – | O=C(/C=C/c1ccc(O)cc1)/C=C/c1ccc(O)cc1
5 | 45.6 | 1.341 | Not Active | Not Active | Not Active | Not Active | – | – | – | 9.9 | – | 5.1 | – | O=C1/C(=C/c2ccc(O)cc2)CC/C1=C\c1ccc(O)cc1
6 | 41.5 | – | Not Active | Not Active | Not Active | Not Active | – | – | – | – | 0.6 | – | 1.382 | COc1cc(/C=C/C(=O)/C=C/c2ccc(O)c(OC)c2)ccc1O
7 | 2.6 | 2.585 | Not Active | Not Active | Not Active | Not Active | Not Active | Not Active | Not Active | – | – | – | – | CN(C)c1ccc(/C=C2\CCC/C(=C\c3ccc(N(C)C)cc3)C2=O)cc1
8 | 11 | 1.959 | Not Active | Not Active | Not Active | Not Active | Not Active | Not Active | Not Active | – | – | – | – | COc1ccc(/C=C2\CCC/C(=C\c3ccc(OC)cc3)C2=O)cc1
9 | 10.4 | 1.983 | Not Active | Not Active | Not Active | Not Active | Not Active | Not Active | Not Active | – | – | – | – | O=C1/C(=C/c2ccc(C(F)(F)F)cc2)CCC/C1=C\c1ccc(C(F)(F)F)cc1
10 | – | – | Not Active | Not Active | Not Active | Not Active | – | – | – | – | – | – | – | O=C1/C(=C/c2ccc(Cl)cc2)CC/C1=C\c1ccc(Cl)cc1
11 | – | – | Not Active | Not Active | Not Active | Not Active | – | – | – | – | – | – | – | COc1ccc(/C=C2\CC/C(=C\c3ccc(OC)cc3)C2=O)cc1
12 | – | – | Not Active | Not Active | Not Active | Not Active | – | – | – | – | – | – | – | O=C1/C(=C/c2ccc(Cl)c(Cl)c2)CC/C1=C\c1ccc(Cl)c(Cl)c1
13 | – | – | Not Active | Not Active | Not Active | Not Active | – | – | – | – | – | – | – | O=C1/C(=C/c2ccc(C(F)(F)F)cc2)CC/C1=C\c1ccc(C(F)(F)F)cc1
14 | – | – | Not Active | Not Active | Not Active | Not Active | – | – | – | – | – | – | – | O=C(/C=C/c1ccc(Cl)c(Cl)c1)/C=C/c1ccc(Cl)c(Cl)c1
15 | – | – | Not Active | Not Active | Not Active | Not Active | – | – | – | – | – | – | – | CN(C)c1ccc(/C=C2\CC/C(=C\c3ccc(N(C)C)cc3)C2=O)cc1
16 | 36.7 | – | Not Active | Not Active | Not Active | Not Active | – | – | – | 37.7 | – | 73.5 | 1.435 | CCc1cc(/C=C2\CC/C(=C\c3cc(CC)c(O)c(CC)c3)C2=O)cc(CC)c1O
17 | – | – | Not Active | Not Active | Not Active | Not Active | – | – | – | 67.3 | 68.5 | – | – | O=C(/C=C/c1ccccc1)/C=C/c1ccccc1
18 | 28 | 1.553 | Not Active | Not Active | Not Active | Not Active | – | – | – | – | – | – | – | CC(C)(C)c1ccc(/C=C/C(=O)/C=C/c2ccc(C(C)(C)C)cc2)cc1
19 | 0.9 | 3.046 | Not Active | Not Active | Not Active | Not Active | Not Active | Not Active | Not Active | – | – | – | – | O=C1/C(=C/c2ccccc2)CCC/C1=C\c1ccccc1 [2,6-DIBENZYLIDENECYCLOHEXANONE]
20 | – | – | Not Active | Not Active | Not Active | Not Active | – | – | – | – | – | – | – | O=C1/C(=C/c2cccc(Cl)c2)CC/C1=C\c1cccc(Cl)c1
21 | – | – | Not Active | Not Active | Not Active | Not Active | Not Active | Not Active | Not Active | – | – | – | – | CC(C)(C)c1cc(/C=C2\CCC/C(=C\c3cc(C(C)(C)C)c(O)c(C(C)(C)C)c3)C2=O)cc(C(C)(C)C)c1O
22 | 3.4 | 2.469 | Not Active | Not Active | Not Active | Not Active | – | – | – | 21.3 | – | – | – | O=C(/C=C/c1cccc(Cl)c1)/C=C/c1cccc(Cl)c1
23 | 3.4 | 2.469 | Not Active | Not Active | Not Active | Not Active | Not Active | Not Active | Not Active | – | – | – | – | O=C1/C(=C/c2cccc(Cl)c2)CCC/C1=C\c1cccc(Cl)c1
24 | 38.9 | 1.41 | Not Active | Not Active | Not Active | Not Active | – | – | – | 2.8 | – | 64.9 | – | COc1cc(/C=C2\CC/C(=C\c3ccc(O)c(OC)c3)C2=O)ccc1O
25 | – | – | Not Active | Not Active | Not Active | Not Active | – | – | – | – | – | – | – | Cc1ccc(/C=C/C(=O)/C=C/c2ccc(C)cc2)cc1
26 | – | – | Not Active | Not Active | Not Active | Not Active | – | – | – | 28.3 | – | – | – | Cc1cc(/C=C2\CC/C(=C\c3cc(C)c(O)c(C)c3)C2=O)cc(C)c1O
27 | 36.6 | 1.437 | Not Active | Not Active | Not Active | Not Active | – | – | – | – | – | – | – | O=C1/C(=C/c2ccccc2)CC/C1=C\c1ccccc1
28 | 4 | 2.398 | Not Active | Not Active | Not Active | Not Active | – | – | – | – | – | – | – | O=C(/C=C/c1ccc(C(F)(F)F)cc1)/C=C/c1ccc(C(F)(F)F)cc1
29 | – | – | Not Active | Not Active | Not Active | Not Active | Not Active | Not Active | Not Active | – | – | – | – | Cc1cc(/C=C2\CCC/C(=C\c3cc(C)c(O)c(C)c3)C2=O)cc(C)c1O
